Results taken from US10851073B2, “Protein tyrosine phosphatase inhibitors and methods of use thereof” (Calico Life Sciences LLC, priority 2019, dated 2020).

Tests used:
[1] = target: T1, His tagged PTPN2 (TC45) protein (Homo sapiens, UniProt P17706); experiment: Mobility shift assay used to determine potency of PTPN2 inhibitors; assay type: biochemical; settings: enzyme 0.5 nM, substrate 2 μM; read-out: PTPN2 MSA IC50
T1 construct: made in house
T1 sequence (P17706 with tags, fused parts or gaps isoform P17706-2): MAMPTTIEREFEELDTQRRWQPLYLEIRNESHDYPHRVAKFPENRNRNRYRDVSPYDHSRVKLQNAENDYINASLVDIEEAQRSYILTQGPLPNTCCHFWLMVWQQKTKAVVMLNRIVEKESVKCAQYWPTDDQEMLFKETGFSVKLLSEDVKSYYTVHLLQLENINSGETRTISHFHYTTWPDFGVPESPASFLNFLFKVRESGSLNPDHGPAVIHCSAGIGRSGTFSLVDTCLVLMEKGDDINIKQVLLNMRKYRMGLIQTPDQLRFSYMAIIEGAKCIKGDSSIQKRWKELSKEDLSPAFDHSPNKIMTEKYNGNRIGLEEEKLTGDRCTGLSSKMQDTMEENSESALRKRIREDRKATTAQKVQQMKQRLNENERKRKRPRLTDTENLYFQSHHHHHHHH
Procedure: Example 227: Mobility Shift Assay Used to Determine Potency of PTPN2 Inhibitors
Compound activity was determined using in house His tagged PTPN2 (TC45) protein (SEQ ID NO: 1) in an in vitro enzymatic reaction. The enzymatic assay used to determine activity was a mobility shift assay using a LabChip EZ Reader by Caliper Life Sciences. The enzymatic reaction was carried out in assay buffer (50 mM HEPES pH 7.5, 1 mM EGTA, 10 mM EDTA, 0.01% Tween® 20, and 2 mM DTT). The compounds were dispensed on a white 384 well ProxiPlate™ (PerkinElmer Catalog #6008289) plate using the Labcyte Echo at varying concentrations (12 point, 1:3 dilution). The enzyme (at 0.5 nM) was incubated with compound for 10 minutes at room temperature. Then the substrate (phosphorylated insulin receptor probe sequence: ((OG488)-(NH—CH2—CH2—O—CH2—CH2—O—CH2—CO)-T-R-D-I-(PY)-E-T-D-Y-Y-R-K-K-NH2) (SEQ ID NO: 2) was added at 2 μM to the plates and incubated for another 10 minutes at room temperature. Finally, a quench solution (water and 4-bromo-3-(2-oxo-2-propoxyethoxy)-5-(3-{[1-(phenylmethanesulfonyl)piperidin-4-yl]amino}phenyl)thiophene-2-carboxylic acid) was added to the plates, which were then run on the EZ Reader (excitation 488 nm, emission 530 nm) to measure % conversion (the amount of phosphorylated substrate which was de-phosphorylated by PTPN2). […] The % inhibition was then used to calculate the IC50 values.

[2] = target: T2, His tagged full-length PTPN1 protein (Homo sapiens, UniProt P18031); experiment: Mobility shift assay (MSA) used to determine potency of PTPN1 inhibitors; assay type: biochemical; settings: enzyme 0.5 nM, substrate 2 μM
T2 construct: made in house
T2 sequence (P18031 with tags, fused parts or gaps): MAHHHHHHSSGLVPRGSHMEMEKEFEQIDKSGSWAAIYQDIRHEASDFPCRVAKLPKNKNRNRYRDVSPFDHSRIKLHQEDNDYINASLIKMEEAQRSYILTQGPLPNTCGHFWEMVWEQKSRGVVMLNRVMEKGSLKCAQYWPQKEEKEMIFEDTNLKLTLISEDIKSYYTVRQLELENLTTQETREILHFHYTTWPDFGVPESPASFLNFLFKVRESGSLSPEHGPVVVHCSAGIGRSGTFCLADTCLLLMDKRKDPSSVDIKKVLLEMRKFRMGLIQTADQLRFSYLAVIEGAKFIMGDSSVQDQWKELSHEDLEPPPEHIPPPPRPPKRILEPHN
Procedure: Example 228: Mobility Shift Assay (MSA) Used to Determine Potency of PTPN1 Inhibitors
Compound activity was determined using in house His tagged full-length PTPN1 protein (SEQ ID NO: 3) in an in vitro enzymatic reaction. The enzymatic assay used to determine activity is a mobility shift assay using a LabChip EZ Reader by Caliper Life Sciences. The enzymatic reaction was carried out in assay buffer (50 mM HEPES pH 7.5, 1 mM EGTA, 10 mM EDTA, 0.01% Tween® 20, and 2 mM DTT). The compounds were dispensed on a white 384 well ProxiPlate™ (PerkinElmer Cat^# 6008289) plate using a Labcyte Echo® liquid handler at varying concentrations (12 point, 1:3 dilution). The enzyme (at 0.5 nM) was incubated with compound for 10 minutes at room temperature. Then the substrate (phosphorylated insulin receptor probe sequence: ((OG488)-(NH—CH2—CH2—O—CH2—CH2—O—CH2—CO)-T-R-D-I-(PY)-E-T-D-Y-Y-R-K-K-NH2) (SEQ ID NO: 2) was added at 2 μM to the plates and incubated for another 10 minutes at room temperature. Finally, a quench solution (water and 4-bromo-3-(2-oxo-2-propoxyethoxy)-5-(3-{[1-(phenylmethanesulfonyl)piperidin-4-yl]amino}phenyl)thiophene-2-carboxylic acid) was added to the plates, which were then run on the EZ Reader (excitation 488 nm, emission 530 nm) to measure % conversion (the amount of phosphorylated substrate which was de-phosphorylated by PTPN1). […] The % inhibition was then used to calculate the IC50 values.

[3] = system: B16F10 mouse melanoma cells; experiment: B16F10 IFNγ-induced cellular growth inhibition assay; assay type: cell-based; settings: B16-F10, with 0.5 ng/mL IFNγ, read-out: B16F10 GI IC50
Method in brief: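 B16F10 cells grown in DMEM+10% FBS, with or without 0.5 ng/mL final mouse IFNγ, and dosed in triplicate at 100 μM to 0.001 μM final (0.1% DMSO). Confluence imaged every 6 h for 5 days; percent growth inhibition versus DMSO/with-IFNγ control taken once DMSO/no-IFNγ wells exceeded 95% confluence, giving IC50.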

| Structure (SMILES) | IC50 [1] [nM] | IC50 [2] [nM] | IC50 [3] [nM] |
| --- | --- | --- | --- |
| CO[C@@H]1CCc2cc(O)c(N3CC(=O)NS3(=O)=O)c(F)c2C1 (single isomer, unassigned) [Compound 104] | 10 to 100 | 10 to 100 | 10000 to 100000 |
| CO[C@H]1CCc2cc(O)c(N3CC(=O)NS3(=O)=O)c(F)c2C1 (single isomer, unassigned) [Compound 109] | 10 to 100 | 10 to 100 | 10000 to 100000 |
| CC(C)CNCC1Cc2cc(O)c(N3CC(=O)NS3(=O)=O)c(F)c2C1 (stereo not drawn) [Compound 275, 5-(4-fluoro-6-hydroxy-2-{[(2-methylpropyl)amino]methyl}-2,3-dihydro-1H-inden-5-yl)-1λ^6,2,5-thiadiazolidine-1,1,3-trione] | 10 to 100 | 10 to 100 | – |
| Cc1noc(C)c1CNC1CCc2cc(O)c(N3CC(=O)NS3(=O)=O)c(F)c2C1 (stereo not drawn) [Compound 287, 5-(7-{[(3,5-dimethyl-1,2-oxazol-4-yl)methyl]amino}-1-fluoro-3-hydroxy-5,6,7,8-tetrahydronaphthalen-2-yl)-1λ^6,2,5-thiadiazolidine-1,1,3-trione] | 10 to 100 | > 100 | – |
| Cc1noc(C)c1CCNC1CCc2cc(O)c(N3CC(=O)NS3(=O)=O)c(F)c2C1 (stereo not drawn) [Compound 290, 5-(7-{[2-(3,5-dimethyl-1,2-oxazol-4-yl)ethyl]amino}-1-fluoro-3-hydroxy-5,6,7,8-tetrahydronaphthalen-2-yl)-1λ^6,2,5-thiadiazolidine-1,1,3-trione] | 1 to 10 | 1 to 10 | – |
| CC(Cc1ccc(C(C)C)cc1)CN1CCc2cc(O)c(N3CC(=O)NS3(=O)=O)c(F)c2C1 (stereo not drawn) [Compound 295, 5-(8-fluoro-6-hydroxy-2-{2-methyl-3-[4-(propan-2-yl)phenyl]propyl}-1,2,3,4-tetrahydroisoquinolin-7-yl)-1λ^6,2,5-thiadiazolidine-1,1,3-trione] | 10 to 100 | > 100 | – |
| CC(CCN1CCc2cc(O)c(N3CC(=O)NS3(=O)=O)c(F)c2C1)CC(C)(C)C (stereo not drawn) [Compound 302, 5-[8-fluoro-6-hydroxy-2-(3,5,5-trimethylhexyl)-1,2,3,4-tetrahydroisoquinolin-7-yl]-1λ^6,2,5-thiadiazolidine-1,1,3-trione] | 1 to 10 | 10 to 100 | – |
| CC(O)CCOC(=O)N1Cc2c(cc(O)c(N3CC(=O)NS3(=O)=O)c2F)C(F)(F)C1 (stereo not drawn) [Compound 304, 3-hydroxybutyl 4,4,8-trifluoro-6-hydroxy-7-(1,1,4-trioxo-1λ^6,2,5-thiadiazolidin-2-yl)-3,4-dihydroisoquinoline-2(1H)-carboxylate] | > 100 | > 100 | – |
| O=C1CN(c2c(O)cc3c(c2F)CC(CNCCC2CCC2)C3)S(=O)(=O)N1 (stereo not drawn) [Compound 305, 5-(2-{[(2-cyclobutylethyl)amino]methyl}-4-fluoro-6-hydroxy-2,3-dihydro-1H-inden-5-yl)-1λ^6,2,5-thiadiazolidine-1,1,3-trione] | 10 to 100 | 10 to 100 | – |
| CC(C)(O)CCOC1CCc2c(cc(O)c(N3CC(=O)NS3(=O)=O)c2F)C1 (stereo not drawn) [Compound 309, 5-[1-fluoro-3-hydroxy-6-(3-hydroxy-3-methylbutoxy)-5,6,7,8-tetrahydronaphthalen-2-yl]-1λ^6,2,5-thiadiazolidine-1,1,3-trione] | 10 to 100 | 10 to 100 | – |
| O=C1CN(c2c(O)cc3c(c2F)CCC(OCC2CC2)C3)S(=O)(=O)N1 (stereo not drawn) [Compound 310, 5-[6-(cyclopropylmethoxy)-1-fluoro-3-hydroxy-5,6,7,8-tetrahydronaphthalen-2-yl]-1λ^6,2,5-thiadiazolidine-1,1,3-trione] | 10 to 100 | 10 to 100 | – |
| O=C1CN(c2c(O)cc3c(c2F)CCC(NCCCC(F)F)C3)S(=O)(=O)N1 (stereo not drawn) [Compound 311, 5-{6-[(4,4-difluorobutyl)amino]-1-fluoro-3-hydroxy-5,6,7,8-tetrahydronaphthalen-2-yl}-1λ^6,2,5-thiadiazolidine-1,1,3-trione] | 1 to 10 | 1 to 10 | – |
| O=C1CN(c2c(O)cc3c(c2F)CCC(OCCCC(F)F)C3)S(=O)(=O)N1 (stereo not drawn) [Compound 312, 5-[6-(4,4-difluorobutoxy)-1-fluoro-3-hydroxy-5,6,7,8-tetrahydronaphthalen-2-yl]-1λ^6,2,5-thiadiazolidine-1,1,3-trione] | 10 to 100 | 10 to 100 | – |
| CC(C)CCNC1CCc2c(cc(O)c(N3CC(=O)NS3(=O)=O)c2F)C1 (stereo not drawn) [Compound 313, 5-{1-fluoro-3-hydroxy-6-[(3-methylbutyl)amino]-5,6,7,8-tetrahydronaphthalen-2-yl}-1λ^6,2,5-thiadiazolidine-1,1,3-trione] | 1 to 10 | 10 to 100 | – |
| CC(C)CCOC1CCc2c(cc(O)c(N3CC(=O)NS3(=O)=O)c2F)C1 (stereo not drawn) [Compound 314, 5-[1-fluoro-3-hydroxy-6-(3-methylbutoxy)-5,6,7,8-tetrahydronaphthalen-2-yl]-1λ^6,2,5-thiadiazolidine-1,1,3-trione] | 10 to 100 | > 100 | – |
| CC(C)(O)CCNC1CCc2c(cc(O)c(N3CC(=O)NS3(=O)=O)c2F)C1 (stereo not drawn) [Compound 315, 5-{1-fluoro-3-hydroxy-6-[(3-hydroxy-3-methylbutyl)amino]-5,6,7,8-tetrahydronaphthalen-2-yl}-1λ^6,2,5-thiadiazolidine-1,1,3-trione] | 1 to 10 | 10 to 100 | – |
| CC(C)(C)OC(=O)NCCOC1CCc2c(cc(O)c(N3CC(=O)NS3(=O)=O)c2F)C1 (stereo not drawn) [Compound 316, tert-butyl (2-{[5-fluoro-7-hydroxy-6-(1,1,4-trioxo-1λ^6,2,5-thiadiazolidin-2-yl)-1,2,3,4-tetrahydronaphthalen-2-yl]oxy}ethyl)carbamate] | 10 to 100 | > 100 | – |
| COC1CCc2c(cc(O)c(N3CC(=O)NS3(=O)=O)c2F)C1 (stereo not drawn) [Compound 317, 5-(1-fluoro-3-hydroxy-6-methoxy-5,6,7,8-tetrahydronaphthalen-2-yl)-1λ^6,2,5-thiadiazolidine-1,1,3-trione] | 10 to 100 | > 100 | – |
| O=C1CN(c2c(O)cc3c(c2F)CCC(NCC2CC2)C3)S(=O)(=O)N1 (stereo not drawn) [Compound 318, 5-{6-[(cyclopropylmethyl)amino]-1-fluoro-3-hydroxy-5,6,7,8-tetrahydronaphthalen-2-yl}-1λ^6,2,5-thiadiazolidine-1,1,3-trione] | 1 to 10 | 10 to 100 | – |
| NCCOC1CCc2c(cc(O)c(N3CC(=O)NS3(=O)=O)c2F)C1 (stereo not drawn) [Compound 319, 5-[6-(2-aminoethoxy)-1-fluoro-3-hydroxy-5,6,7,8-tetrahydronaphthalen-2-yl]-1λ^6,2,5-thiadiazolidine-1,1,3-trione] | 10 to 100 | > 100 | – |
